# Entries after “also recorded” stand apart in the source; their conditions may differ.
# B1: LCN2: mouse recombinant (rm) LCN2 (R&D, 1857-LC-050) added to Th22 polarizing culture (protein, UniProt P11672 21-200, looked up)
# Neutrophil …: QDSTQNLIPAPSLLTVPLQPDFRSDQFRGRWYVVGLAGNAVQKKTEGSFTMYSTIYELQENNSYNVTSILVRDQDQGCRYWIRTFVPSSRAGQFTLGNMHRYPQVQSYNVQVATTDYNQFAMVFFRKTSENKQYFKITLYGRTKELSPELKERFTRFAKSLGLKDDNIIFSVPTDQCIDN
# Key:
# [1] = test system: Reg3b, Reg3g and Tnf-α genes in the intestine; assay: Rescue IL-22 therapy: transcriptional levels of intestinal genes by q-PCR; format: in vivo, mouse; conditions: WT SBR mice
# Protocol: (§1) Rescue IL-22 Therapy for SBR WT Mice. Following a 75% SBR, WT mice were treated daily for six days via intraperitoneal injections with either 100 μL PBS as control or 100 μL PBS containing 4 μg rmIL-22 (PeproTECH, 210-22) as treatment. At post-operative day (POD) 7, intestinal tissue and cecal contents were collected after euthanasia. The relative abundance of Proteobacteria, Bacteroidetes, Firmicutes, Lactobacillus and Enterobacteriaceae of fecal microbiome and Reg3b and Reg3g genes in the intestine were assessed by q-PCR.
# RNA Extraction and Reverse Transcription. Total RNA from tissue was extracted according to the manufacturer's instructions (QIAGEN, RNeasy Mini Kit, 74106). Genomic DNA was eliminated from RNA, and total RNA (0.5 μg) was reverse transcribed to cDNA with QuantiTect Reverse Transcription Kit according to the manufacturer's protocol (QIAGEN, 205311, Germantown, Md., USA).
# (§2) Quantitative real-time PCR. Gene quantification was carried out with iTap Universal SYBR Green Supermix (Bio-rad, 172-5124, Hercules, Calif., USA) on a CFX96 Touch Real-time PCR system (Bio-rad) according to the manufacturer's instructions and calculated with 2^−ΔΔCT method. Thermal cycling was performed at 95° C. for 5 min, followed by 40 cycles at 95° C. for 15 s, 60° C. 10s, 72° C. for 30 s. Primers for transcriptional levels of Lcn2, IL-6.
# [2] = test system: Proteobacteria, Bacteroidetes, Firmicutes of fecal microbiome; assay: Rescue IL-22 therapy: relative abundance of fecal microbiome groups by q-PCR; format: in vivo, mouse; conditions: WT SBR mice, POD 7, q-PCR
# Protocol: as §1, §2
# [3] = test system: WT SBR mice (75% SBR model of short bowel syndrome); assay: Rescue IL-22 therapy for SBR WT mice: body weight and villus length; format: in vivo, mouse
# Protocol: Creation of a clinically relevant model of short bowel syndrome in the mouse. In our laboratory, we established the model previously described by Helmrath et al.^18 Briefly, the hair on the abdomen of the mouse was removed by depilatory creams, and the abdomen was scrubbed with three rounds of betadine, prior to making an incision. Through a 1.5 cm midline laparotomy, the small bowel was examined. The 75% SBR was performed by transecting 3 cm distal to the ligament of Treitz and 6 cm proximal to the cecum. The intervening proximal small bowel (approximately 18 cms) was removed. Intestinal continuity was restored with a primary end-to-end jejunoileal anastomosis using 8-0 Nylon suture. The sham operation (SHA) was performed by transecting the small bowel 6 cm proximal to the cecum and immediately creating a primary end-to-end ileoileal anastomosis. Subcutaneous closure was performed with a running absorbable 4-0 Vicryl suture. Cutaneous closure was completed by interrupted 4-0 silk sutures. All animals received 1 mL of saline subcutaneously before and immediately after procedure.
# After surgery, mice were offered free access to water for the first 24 hours. Fresh rodent liquid diet was provided and body weight was measured daily. Bromodeoxyuridine (BrdU) (Invitrogen, 00-0103) was administered through intraperitoneal injection (ip) 24 hours before euthanasia. Intestinal permeability was evaluated with FITC-Dextran intestinal permeability assay as described below. Serum, intestinal issue, liver, and cecal content were collected after euthanasia.
# Morphometric Analysis. The jejunum and ileum were fixed in 10% neutral buffered formalin for 24 hours. […] Villus length in jejunum and ileum was measured under light microscopy (EVOS FL Auto Imaging System). At least 30 well-oriented intact villi were counted per mouse.
# Rescue IL-22 Therapy for SBR WT Mice. […] The relative abundance of Proteobacteria, Bacteroidetes, Firmicutes, Lactobacillus and Enterobacteriaceae of fecal microbiome and Reg3b and Reg3g genes in the intestine were assessed by q-PCR.
# WT SBR mice = assay: I3C (AHR agonist) supplementation in SBR mice: weight gain; format: in vivo, mouse; conditions: WT SBR mice vs DMSO-treated control, postoperative days 3-7, p=0.04 at day 7
# Description: In one experiment, AHR agonists are studied in our SBR model. The purpose of this experiment is to study AHR activation via a dietary supplement, which has tremendous potential as a translational approach. Under our ACUC-approved protocol, we will perform a 75% SBR on the same four groups [n=12 mice in each group] of C57Bl/6J mice: WT, LCN2-/-, AHR-/- and AHR-/-LCN2-/-. Sham-operated WT, LCN2-/-, AHR-/- and AHR-/-LCN2-/- C57Bl/6J mice [n=12 mice in each group] will serve as controls. Mice will be randomized to receive either the AHR agonist, indole-3-carbinol […]) (Sigma, 17256, St Louis, Mo.) at a dose of 15-20 mg/kg, dissolved in DMSO, or DMSO alone mixed into the liquid diet. The rodent liquid diet containing […] will be maintained for the duration of the postoperative period. Control mice will receive DMSO only. Mice will be weighed daily. One week later, the mice will be anesthetized for tissue collection and analyses performed.
# Th22 cells = assay: Th22 cell differentiation with and without LCN2, IL-22 ELISA of supernatant; format: cell-based, mouse; conditions: rmLCN2 1 ug/mL, 5 days
# Protocol: Naïve CD4^+ T Lymphocytes Isolation and Th22 cells Differentiation. We isolated naïve CD4+ T cells as previously described by Bedoya S K et al.^22 Briefly, splenic tissue was removed from 6-week old C57BL/6J male mice and ground into a single cell suspension under a sterile hood. Red blood cells (RBC) were removed by using ammonium-chloride-potassium (ACK) lysing buffer (Quality Biological, 118-156-101, Gaithersburg, Md., USA) at RT for 3 minutes. Naïve CD4+ T cells were isolated from total splenocyte by magnetic activated cell sorting (MACS) based on positive selection using CD4 (L3T4) MicroBeads (Miltenyi Biotec, 130-117-043, Bergisch-Gladbach, Germany) according to the manufacturer's instructions. The purity of naive CD4+ T cells was more than 97%, as measured by flow cytometry.
# For Th22 cell differentiation, CD4+ T cells were stimulated in complete media (RPMI 1640 with 2 mM L-glutamine, 10% FBS, […] 1-ME, 100 U/ml penicillin-streptomycin) with plate-bound anti-CD3ε (Clone 145-2C11, 1 ug/mL, BD; 550275) and soluble anti-CD28 (Clone 37.51, 2 ug/ml, BD, 553295) for 5 days under polarizing condition for Th22 cells (IL-6 20 ng/mL, IL-β 10 ng/mL, TNF-α 10 ng/mL)^23 with and without mouse recombinant (rm) LCN2 (1 ug/mL, R&D, 1857-LC-050). Cell supernatant was collected for IL-22 ELISA analysis (Invitrogen, 88-7422-22) according to the manufacturer's instructions.
# [4] = jejunum and colon, especially in the colon
# [5] = POD 7, compared to PBS-treated group
molecule,measurement,setting,value
"rmIL-22: recombinant mouse IL-22 (PeproTECH, 210-22), given intraperitoneally in PBS",Reg3b transcriptional level,[1]; [4],robust increase
same,Reg3g transcriptional level,[1]; [4],robust increase
same,transcriptional levels of Tnf-α,"[1]; jejunum, inflammation",increased
same,relative abundance of Bacteroidetes,[2],increased
same,relative abundance of Firmicutes,[2],increased
same,relative abundance of Proteobacteria,[2],decreased
same,body weight lost,"[3]; POD 7, 4 μg rmIL-22 ip daily for six days",7.5%
same,length of villi in ileum,[3]; [5],no difference
same,length of villi in jejunum,[3]; [5],significantly longer
"OCc1c[nH]c2ccccc12 [I3C, indole-3-carbinol]",weight gain following SBR,WT SBR mice,increases; also recorded: significant increase
B1,levels of IL-22 protein expression from Th22 cells,Th22 cells,significantly decreased

# Reference: patent US20230152314A1, “LIPOCALIN-2 ASSAY FOR INTESTINAL ADAPTATION” (THE JOHNS HOPKINS UNIVERSITY, priority 2020, published 2023)
